Measurements: the NIST ThermoML archive (doi:10.1021/je900525f)

Test: xn = mol fraction of the nth substance listed
Details: 101 kPa, Liquid; for viscosity: Capillary tube (Ostwald / Ubbelohde) method; for speed of sound: Pulse-echo method

CCOC(=O)CCl [ethyl chloroethanoate] + N#CCc1ccccc1
Details | mass density, 303.15 K [kg/m3] | mass density, 308.15 K [kg/m3] | mass density, 313.15 K [kg/m3] | speed of sound, 303.15 K [m/s] | speed of sound, 308.15 K [m/s] | speed of sound, 313.15 K [m/s] | viscosity, 303.15 K [mPa·s] | viscosity, 308.15 K [mPa·s] | viscosity, 313.15 K [mPa·s]
x2 = 0 | 1139.3 | 1132.5 | 1125.9 | 1229.4 | 1212.4 | 1197.6 | 0.9692 | 0.8979 | 0.8341
x2 = 0.0205 | 1135.8 | 1129.8 | 1123.2 | 1235.7 | 1218.9 | 1204 | 0.9824 | 0.9115 | 0.8463
x2 = 0.1376 | 1119.2 | 1114.3 | 1107.6 | 1268.8 | 1254 | 1240.4 | 1.069 | 0.9906 | 0.9164
x2 = 0.2585 | 1102.6 | 1098.5 | 1091.7 | 1303.2 | 1291.5 | 1279 | 1.161 | 1.072 | 0.9925
x2 = 0.3793 | 1086.4 | 1083.3 | 1076.2 | 1338.7 | 1328.4 | 1316.6 | 1.254 | 1.155 | 1.07
x2 = 0.4843 | 1072.6 | 1069.8 | 1062.8 | 1370.5 | 1361.6 | 1348.5 | 1.336 | 1.229 | 1.139
x2 = 0.5875 | 1059.3 | 1056.4 | 1049.8 | 1400.6 | 1388.9 | 1381 | 1.419 | 1.302 | 1.207
x2 = 0.7152 | 1043.2 | 1040 | 1034 | 1438.2 | 1426.3 | 1419.9 | 1.523 | 1.394 | 1.292
x2 = 0.8434 | 1027.5 | 1023.7 | 1018.3 | 1476.9 | 1466 | 1457.4 | 1.628 | 1.488 | 1.379
x2 = 0.9764 | 1011.6 | 1007 | 1002.3 | 1516 | 1505.6 | 1495.8 | 1.74 | 1.584 | 1.471

CCOC(=O)CC#N [ethyl cyanoacetate] + N#CCc1ccccc1
Details | mass density, 303.15 K [kg/m3] | mass density, 308.15 K [kg/m3] | mass density, 313.15 K [kg/m3] | speed of sound, 303.15 K [m/s] | speed of sound, 308.15 K [m/s] | speed of sound, 313.15 K [m/s] | viscosity, 303.15 K [mPa·s] | viscosity, 308.15 K [mPa·s] | viscosity, 313.15 K [mPa·s]
x2 = 0 | 1051.4 | 1046.5 | 1040.8 | 1396.9 | 1384.8 | 1367.7 | 2.186 | 1.962 | 1.77
x2 = 0.0223 | 1050.1 | – | 1039.8 | 1399.6 | – | 1370.4 | 2.179 | – | 1.764
x2 = 0.0233 | – | 1045.6 | – | – | 1386.5 | – | – | 1.955 | –
x2 = 0.1383 | 1044.4 | 1040.9 | 1034.8 | 1412.3 | 1397.7 | 1384.6 | 2.135 | 1.917 | 1.733
x2 = 0.2569 | 1038.8 | 1035.9 | 1029.9 | 1424.4 | 1410 | 1399.1 | 2.088 | 1.877 | 1.701
x2 = 0.3778 | 1033.4 | 1030.8 | 1025.3 | 1436 | 1423.7 | 1414.2 | 2.039 | 1.836 | 1.671
x2 = 0.4842 | 1028.9 | 1026.3 | 1021.1 | 1448 | 1436.3 | 1429.2 | 1.995 | 1.799 | 1.644
x2 = 0.5882 | 1024.6 | 1021.8 | 1016.8 | 1461.3 | 1450.4 | 1442 | 1.95 | 1.761 | 1.612
x2 = 0.7172 | 1019.4 | 1016.2 | 1011.4 | 1479.4 | 1468.5 | 1459.4 | 1.893 | 1.713 | 1.572
x2 = 0.8426 | 1014.6 | 1010.9 | 1005.8 | 1496.9 | 1487.6 | 1478 | 1.835 | 1.664 | 1.535
x2 = 0.9759 | 1009.7 | 1005.2 | 1000.4 | 1515.5 | 1508.7 | 1495.9 | 1.773 | 1.612 | 1.496
